The values below come from EP1380574B1, “9-aminoacridine derivates and process for the preparation thereof” (Samjin Pharmaceutical Co., Ltd., priority 1998, dated 2000).

For series [1], the system named is A549 (human non-small lung cell). Nature of the series: In vitro antitumor effect against human tumor cell lines, SRB assay. The settings on record: A 549 cells, 48 hours with drug. Format: cell-based. The protocol:
(§1) Experimental 1 : In vitro antitumor effect against human tumor cell lines.
(§2) A. Tumor cell lines : A549 (human non-small lung cell)
(§3) • SKOV-3 (human ovarian) • HCT-15 (human colon) • XF-498 (human CNS) • SKMEL-2 (human melanoma)
(§4) • a. Human solid tumor cell lines, A549(non-small lung cell), SKMEL-2(melanoma), HCT-15(colon), SKOV-3(ovarian) and XF-498(CNS) were cultured in 5% CO2 incubators using the RPMI 1640 media containing 10% FBS at 37°C, while with transfer-culturing successively once or twice per week. Cell cultures were dissolved in a solution of 0.25% trysin and 3 mmol CDTA PBS(-) to separate the cells sticked on the culture media. • b. 5× 10^3∼2× 10^4 cells were added into each well of 96-well plate and cultured in 5% CO2 incubator at 37°C for 24 hours. • c. Each sample drug was dissolved in a little DMSO and diluted with the used medium to a prescribed concentration for experiment, while the final concentration of DMSO was adjusted below 0.5%. • d. Medium of each well cultured for 24 hours as above b. was removed by aspiration. Each 200µl of drug samples prepared in c. was added into each well and the wells were cultured for 48 hours. Tz (time zero) plates were collected at the point of time drugs were added. • e. According to the SRB assay method, cell fixing with TCA, staining with 0.4% SRB solution, washing with 1% acetic acid and elution of dye with 10mmol Tris solution were carried out on Tz plates and culture-ended plates, and then, OD values were measured at 520 nm.
(§5) • a. Time zero(Tz) value was determined with measuring the SRB protein value at the point of time drugs were added. • b. Control value (C) was determined with the OD value of an well untreated with drug. • c. Drug-treated test value (T) was determined with the OD value of drug-treated well. • d. Effects of drugs were estimated with growth stimulation, net growth inhibition and net killing calculated from Tz, C and T values. • e. If T ≥ Tz, cellular response function was calculated by 100x(T-Tz)/(C-Tz), and, if T 〈 Tz, by 100× (T-Tz)/Tz.
(Sulforhodamine B stains cellular protein and so reports cell mass.)

Another series relates to HCT-15 (human colon). The description is as above. Format: cell-based. The note with it: HCT 15 cells, 48 hours with drug. The method, then: as §1, §2, §3, §4, §5
The subject of a further series is SKMEL-2 (human melanoma). The series is described as above. The note with it: SK-MEL-2 cells, 48 hours with drug. The class given is cell-based. The method, then: as §1, §2, §3, §4, §5
The test system of a further series is SKOV-3 (human ovarian). The description is as above. The class given is cell-based. The settings on record: SK-OV-3 cells, 48 hours with drug. The protocol:
as §1, §2, §3, §4, §5

The next series deals with XF-498 (human CNS). The description is as above. Format: cell-based. The settings on record: XF-498 cells, 48 hours with drug. The method, then: as §1, §2, §3, §4, §5
For a further series, the target named is Topoisomerase II. Nature of the series: Inhibition of Topoisomerase II activity (DNA relaxation assay / DNA cleavage assay with supercoiled pBR322 DNA). Format: biochemical. The settings on record: Topo II, 30 minutes at 37°C, table does not say which of the two assays. The protocol: Experimental 3 : Inhibition effects against the Topoisomerase II activities
The present compounds were tested for inhibition of Topoisomerase II activity by means of the relaxation assay using supercoiled pBR322 DNA as the substrate. Topo II and a sample inhibitor were added to a reaction system (50mmol Tris-HCl, pH 7.5, 50mmol KCl, 20mmol MgCl2, 0.5mmol EDTA, 2mmol ATP, 60µg/mℓ BSA) containing supercoiled pBR322 DNA and reacted for 30 minutes at 37°C. Then, a quarter by volume of Stop buffer (5% SDS, 50mmol EDTA, 30% glycerol, 0.1mg/mℓ xylene cyanol, 0.1mg/mℓ BPB) was added to the reaction system to stop the reaction. The resulting product went through electrophoresis on 0.7% agarose gel and was stained by ethidium bromide solution. Mobility of DNA was measured under ultraviolet rays.
Topo II and a sample inhibitor were added to cleavage buffer (30mmol Tris-HCl, pH 7.5, 60mmol KCl, 10mmol MgCl2, 15mmol β -mercaptoethanol, 30µg/mℓ BSA) containing supercoiled pBR322 DNA and allowed to react for 30 minutes at 37°C. Then, […] by 1% was added to the reaction system to stop the reaction. Then, proteinase K was added thereto up to the concentration of 50 µg/mℓ and allowed to react for 30 minutes at 56°C. The reaction product was treated with phenol/chloroform to purify DNA, and the obtained DNA was loaded on agarose gel electrophoresis, transferred to nitrocellulose membrane and hybridized with probe DNA labelled with radioisotope. Then, the nitrocellulose membrane was covered with an X-ray film and exposed to be sensitized and developed, whereby the degree of cleavage of DNA was measured.

Series [2] concerns P388 (mouse lymphoid neoplasma cell). Nature of the series: In vitro antitumor effect against animal leukemia cells, dye exclusion assay (trypan blue). The settings on record: 48 hours, dye exclusion test using trypan blue, read-out: IC50 (concentration showing 50 % cell growth inhibition). Format: cell-based. From the text:
Experimental 2 : In vitro antitumor effects against animal leukemia cells.
• Tumor cell lines : P388 (mouse lymphoid neoplasma cell)
B. Method : Dye Exclusion Assay.

A short description of series [3]: Acute toxicity test (LD50), Litchfield-Wilcoxon method. The class given is in vivo. The note with it: mouse, in vivo, ICR mice (male), observed during 14 days.
A further series relates to ICR mice. The description is as above. The class given is in vivo. The note with it: i.p., ICR mice (male), observed during 14 days.

Molecules are shown by their SMILES. In brackets after ≈: the same amount, converted by molar mass.

The term LD50 denotes the dose at which mortality reaches 50%. The low end stands for greater toxicity, the high end for lower toxicity.

Consider `Nc1cc(COC(=O)Nc2ccccc2)cc(Nc2c3ccccc3nc3ccccc23)c1` [Example 1, [3-(acridin-9-yl)amino-5-amino]benzyl N-phenylcarbamate], for which the ED50 in series [1] is recorded as 0.96 µ g/ml; in the series on HCT-15 (human colon) it was 0.57 µ g/ml; in the series on SKMEL-2 (human melanoma), 0.49 µ g/ml; with SKOV-3 (human ovarian), 1.15 µ g/ml; with XF-498 (human CNS), 0.44 µ g/ml. The same compound showed an IC50 against Topoisomerase II of 1 µg/mL (≈ 2.3 µM).

At Topoisomerase II, `CC=Nc1cc(CO)cc(Nc2c3ccccc3nc3ccccc23)c1` [Example 35, 3-(acridin-9-yl)amino-5-(ethylideneamino)phenylmethanol] registered an IC50 of 5 µg/mL (≈ 14.6 µM).

The compound `COc1cccc(NC(=O)OCc2cccc(Nc3c4ccccc4nc4ccccc34)c2)c1` [Example 20, 3-(acridin-9-yl)aminobenzyl N-(3-methoxyphenyl)carbamate] displayed an IC50 against Topoisomerase II of 3 µg/mL (≈ 6.67 µM).

`CCC=Nc1cc(CO)cc(Nc2c3ccccc3nc3ccccc23)c1` [Example 36, 3-(acridin-9-yl)amino-5-(propylideneamino)phenylmethanol]: the IC50 against Topoisomerase II stood at 3 µg/mL (≈ 8.44 µM).

With `COc1cccc(NC(=O)OCc2cc(N)cc(Nc3c4ccccc4nc4ccccc34)c2)c1` [Example 2, [3-(acridin-9-yl)amino-5-amino]benzyl N-(3-methoxyphenyl)carbamate], the ED50 in series [1] was 1.12 µ g/ml; in the series with HCT-15 (human colon), 0.97 µ g/ml; in the series with SKMEL-2 (human melanoma), 1.08 µ g/ml; with SKOV-3 (human ovarian), 0.68 µ g/ml; with XF-498 (human CNS), 0.71 µ g/ml. Besides, the IC50 on Topoisomerase II is 3 µg/mL (≈ 6.46 µM).

In the case of `Nc1cc(COC(=O)Nc2cccc(Cl)c2)cc(Nc2c3ccccc3nc3ccccc23)c1` [Example 14, [3-(acridin-9-yl)amino-5-amino]benzyl N-(3-chlorophenyl)carbamate], the IC50 (in [2]; on Topoisomerase II) was 1 µg/mL (≈ 2.13 µM) each time.

`COc1cc(NC(=O)OCc2cccc(Nc3c4ccccc4nc4ccccc34)c2)cc(OC)c1OC` [Example 22, 3-(acridin-9-yl)aminobenzyl N-(3,4,5-trimethoxyphenyl)carbamate] showed an IC50 on Topoisomerase II of 5 µg/mL (≈ 9.81 µM).

On to `N[C@@H](Cc1ccccc1)C(=O)Nc1cc(CO)cc(Nc2c3ccccc3nc3ccccc23)c1` [Example 46, N-[3-(acridin-9-yl)amino-5-(hydroxymethyl)phenyl] (2S)-2-amino-3-phenylpropaneamide], for which the IC50 in series [2] amounted to 0.1 µg/mL (≈ 0.216 µM); against Topoisomerase II, 3 µg/mL (≈ 6.49 µM).

In the case of `COc1cc(NC(=O)OCc2cc(N)cc(Nc3c4ccccc4nc4ccccc34)c2)cc(OC)c1OC` [Example 4, [3-(acridin-9-yl)amino-5-amino]benzyl N-(3,4,5-trimethoxyphenyl)carbamate], the ED50 in series [1] was 0.19 µ g/ml; in the series on HCT-15 (human colon) it was 0.24 µ g/ml; in the series on SKMEL-2 (human melanoma) it was 0.20 µ g/ml; in the series on SKOV-3 (human ovarian) it was 0.19 µ g/ml; in the series on XF-498 (human CNS) it was 0.23 µ g/ml. On Topoisomerase II, this compound gave an IC50 of 5 µg/mL (≈ 9.53 µM).

Turning to `CCCC=Nc1cc(CO)cc(Nc2c3ccccc3nc3ccccc23)c1` [Example 37, 3-(acridin-9-yl)amino-5-(butylideneamino)phenylmethanol], the ED50 was 0.90 µ g/ml in series [1]; 0.35 µ g/ml in the series with HCT-15 (human colon); 0.89 µ g/ml with SKMEL-2 (human melanoma); 0.93 µ g/ml with SKOV-3 (human ovarian); 0.36 µ g/ml in the series with XF-498 (human CNS). The same compound gave an IC50 at Topoisomerase II of 5 µg/mL (≈ 13.5 µM).

Compound `COc1cc(NC(=S)OCc2cc(N)cc(Nc3c4ccccc4nc4ccccc34)c2)cc(OC)c1OC` [Example 19, [3-(acridin-9-yl)amino-5-amino]benzyl N-(3,4,5-trimethoxyphenyl)thiocarbamate] returned an IC50 at Topoisomerase II of 5 µg/mL (≈ 9.25 µM).

Consider `Cc1cc(C)cc(NC(=O)OCc2cc(N)cc(Nc3c4ccccc4nc4ccccc34)c2)c1` [Example 6, [3-(acridin-9-yl)amino-5-amino]benzyl N-(3,5-dimethylphenyl)carbamate], for which the ED50 in [1] was 0.72 µ g/ml; with HCT-15 (human colon) it was 0.33 µ g/ml; in the series with SKMEL-2 (human melanoma) it was 0.40 µ g/ml; in the series on SKOV-3 (human ovarian), 0.36 µ g/ml; in the series with XF-498 (human CNS), 0.37 µ g/ml. Besides, the IC50 against Topoisomerase II worked out at 3 µg/mL (≈ 6.49 µM).

For the compound `NCC(=O)Nc1cc(CO)cc(Nc2c3ccccc3nc3ccccc23)c1` [Example 44, N-[3-(acridin-9-yl)amino-5-(hydroxymethyl)phenyl] aminoethaneamide], the IC50 in [2] amounted to 0.1 µg/mL (≈ 0.269 µM); at Topoisomerase II it was 3 µg/mL (≈ 8.06 µM).

Turning to `N.N.[Cl][Pt][Cl]` [Cisplatin, reference compound], the ED50 was determined as 0.81 µ g/ml in [1]; 3.03 µ g/ml with HCT-15 (human colon); 0.71 µ g/ml in the series on SKMEL-2 (human melanoma); 0.71 µ g/ml with SKOV-3 (human ovarian); 0.77 µ g/ml in the series with XF-498 (human CNS).

For the compound `COc1cc(NC(=S)OCc2cc(N)cc(Nc3c4ccccc4nc4ccccc34)c2)cc(OC)c1` [Example 18, [3-(acridin-9-yl)amino-5-amino]benzyl N-(3,5-dimethoxyphenyl)thiocarbamate], the IC50 in series [2] is 0.7 µg/mL (≈ 1.37 µM); at Topoisomerase II, 3 µg/mL (≈ 5.88 µM).

On to `C[C@H](N)C(=O)Nc1cc(CO)cc(Nc2c3ccccc3nc3ccccc23)c1` [Example 45, N-[3-(acridin-9-yl)amino-5-(hydroxymethyl)phenyl] (2S)-2-aminopropaneamide], for which the ED50 was 0.01 µ g/ml in [1]; 0.86 µ g/ml with HCT-15 (human colon); 0.25 µ g/ml with SKMEL-2 (human melanoma); 0.21 µ g/ml with SKOV-3 (human ovarian); 0.88 µ g/ml with XF-498 (human CNS). Further, the IC50 in series [2] was 0.05 µg/mL (≈ 0.129 µM); against Topoisomerase II, 0.5 µg/mL (≈ 1.29 µM). The LD50 at 14 days amounted to 730 mg/kg in [3] (ip) and 133 mg/kg in [3] (iv).

As for `COc1cc(NC(=O)OCc2cc(N)cc(Nc3c4ccccc4nc4ccccc34)c2)cc(OC)c1` [Example 3, [3-(acridin-9-yl)amino-5-amino]benzyl N-(3,5-dimethoxyphenyl)carbamate], the IC50 came to 1.1 µg/mL (≈ 2.22 µM) in series [2] and 3 µg/mL (≈ 6.07 µM) against Topoisomerase II.

Turning to `Nc1cc(COC(=O)Nc2cc(F)cc(F)c2)cc(Nc2c3ccccc3nc3ccccc23)c1` [Example 12, [3-(acridin-9-yl)amino-5-amino]benzyl N-(3,5-difluorophenyl)carbamate], the IC50 on Topoisomerase II worked out at 0.5 µg/mL (≈ 1.06 µM). The same compound had an LD50 with ICR mice of 150 mg/kg.

`COc1cc(NC(=O)OCc2cccc(Nc3c4ccccc4nc4ccccc34)c2)cc(OC)c1` [Example 21, 3-(acridin-9-yl)aminobenzyl N-(3,5-dimethoxyphenyl)carbamate]: the IC50 at Topoisomerase II is 3 µg/mL (≈ 6.26 µM).
